Results on 16 molecules are retold here after US7541368B2, “Pyrazoles as inhibitors of tumor necrosis factor” (Aventis Pharmaceuticals Inc., priority 2003, dated 2009).

For experiment [1], the target named is T1, Inactive N-terminal His6 tagged murine P38 (Mus musculus, UniProt P47811).
T1 construct: His6 (N); made in house
In words: p38 cascade assay (HTRF; inactive p38 activated by MKK-6, ATF-2 phosphorylation). Type of experiment: biochemical. To be noted: inactive p38 preincubated with compound, then MKK-6, ATF-2, ATP; read-out: 50% inhibition in the p38 cascade assay at concentrations within the range. Here is the method: The homogeneous time resolved fluorescence method (HTRF) assay measured the phosphorylation of human activating transcription factor (ATF)-2 protein by P38 following activation by MKK-6 and was run in A384 well plate format. […] MBP-tagged mouse MKK-6 (final concentration 50 nM), GST-tagged ATF-2 (fmal concentration 200 nM) and ATP (final concentration 50 μM) were then added and the incubation continued for 90 min. p38, MKK-6 and ATF-2 were prepared in the Protein Production Group, Aventis Pharmaceuticals. XL665 labeled anti-GST antibody (Cis Bio International) and cryptate labeled anti-pbospho-ATF2 antibody (Cis Bio International) were then added to generate the specific signal proportional to the phosphorylation of the substrate. The close proximity of XL665 labeled anti-GST antibody/phosphorylated GST-ATF2 complex and the cryptate labeled anti-phospho-ATF2 antibody results in a fluorescence transfer from cryptate to XL665. The resulting fluorescence signal was than read on a LJL Acquest set at multi-method mode using a fluorescence filter set (E=360 nm, Em=615/665 nm) with UV dichroic mirror (Integration time: 300000 μs). The results are reported as IC50 values. Compounds were tested over the concentration range of 3×10^−10M to 3×10^−5M.

Another experiment has as its target T2, Murine p38 (Mus musculus, UniProt P47811).
T2 construct: purchased CalBiochem 506122
As to the kind of experiment: Murine p38α standard assay against pre-activated p38 (ATF-2 phosphorylation, DELFIA). In kind it is biochemical. The conditions noted are these: murine p38, ATF-2 substrate. As to the method: Compounds of the invention were tested in a conventional assay against pre-activated p38. Murine p38 enzyme activity was determined by measuring the incorporation of the γ-phosphate of ATP into ATF-2.
Human GST-tagged ATF-2 (50 μg/ml) was coated onto 96 well plates. Assay buffer (25 mM Hepes buffer, pH 7.7 containing 25 mM magnesium chloride, 2 mM dithiothreitol, 1 mM sodium orthovanadate and 100 μM ATP) was then added to each well. Compounds were dissolved in DMSO (100%) and added to the assay buffer to give a fmal DMSO concentration of 0.3%. Murine p38 (CalBiochem Catalog # 506122; 40 ng/ml) was then added and the assay continued for 1 hour.
Phosphorylated ATF-2 was quantitated using a rabbit anti-human phospho (threonine 71)-specific ATF-2 primary antibody (Cell Signaling, Catalog # 9221B) followed by a sheep europium N^1-labelled anti-rabbit IgG secondary antibody (Perkin Elmer Life Sciences Catalog # AD0105) and addition of the DELFIA enhancement solution (Perkin Elmer Life Sciences) resulting.
Fluorescence was measured using a Wallac Victor^2 1420 multi-label HTS counter (Perkin Elmer Life Sciences). The results are reported as IC50 values. Compounds were tested over the concentration range of 3×10^−10M to 3>10^−5M.

The test system of experiment [2] is TNF-alpha release in THP-1 cells. In words: LPS-induced TNF-alpha release in THP-1 cells. Type of experiment: cell-based. To be noted: Homo sapiens, THP-1, LPS-stimulated THP-1 cells. The method, boiled down:
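TNF-alpha in supernatants was quantified by sandwich ELISA against a log/log recombinant standard curve (0.125-16 ng/ml). Before this, THP-1 cells (1×10^6 cells/ml, serum-reduced) received compound at 1×10^−9 to 1×10^−6 M in 0.3% DMSO for 1 h, then LPS 20 μg/ml for 18 h.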

Experiment [3] has as its system Human HSP27 phosphorylation. As to the kind of experiment: HSP27 phosphorylation in LPS stimulated THP-1 cells. In kind it is cell-based. The conditions noted are these: Western blot, read-out: HSP-27. As to the method:
The effects of compounds on Heat Shock Protein (HSP)-27 phosphorylation in LPS stimulated THP-1 cells were examined as follows:
THP-1 cells were maintained as described for the TNF-alpha assay (1.1.).
THP-1 cells (1×10 ^6 cells/ml, total volume 1 ml) in culture medium were incubated for one hour (5% CO2, 37° C.) with fresh medium containing compounds (0.0001-30 μM) or vehicle (0.1% DMSO). LPS ([…]) was then added to the cells (except the untreated cell sample) and the incubation continued for a further 20 minutes. Cells were collected, centrifuiged and washed with ice-cold PBS buffer (free of Ca^2+ and Mg^2+). Cell lysates were prepared with 1× lysis buffer (Promega Catalog# E153A) for storage at −20° C.
HSP27 phosphorylation was determined by Western blot-enhanced chemi-luminescence (ECL-Amersham)). Briefly, cell lysates were electrophoresed on 12% Tris-glycine gels and transferred to nitrocellulose membranes. The membranes were then probed with primary rabbit antiphospho-HSP27 (ser82) antibody and secondary anti-rabbit antibody conjugated to horse raddish peroxidase. After addition of the ECL detection reagent, the film was developed and the p-HSP27 immunoreactivity quantified by densitometry.

The mark [4] stands for this setting: TNF-alpha by ELISA, read-out: THP 1 cells.
Setting [5] is: read-out: 50% inhibition in the LPS-induced TNF-alpha release in THP-1 cells assay at concentrations within the range.

pIC50: −log10 of the molar value. Like-named read-outs stand apart in the source and are kept apart here.

T2 sequence (P47811 whole entry): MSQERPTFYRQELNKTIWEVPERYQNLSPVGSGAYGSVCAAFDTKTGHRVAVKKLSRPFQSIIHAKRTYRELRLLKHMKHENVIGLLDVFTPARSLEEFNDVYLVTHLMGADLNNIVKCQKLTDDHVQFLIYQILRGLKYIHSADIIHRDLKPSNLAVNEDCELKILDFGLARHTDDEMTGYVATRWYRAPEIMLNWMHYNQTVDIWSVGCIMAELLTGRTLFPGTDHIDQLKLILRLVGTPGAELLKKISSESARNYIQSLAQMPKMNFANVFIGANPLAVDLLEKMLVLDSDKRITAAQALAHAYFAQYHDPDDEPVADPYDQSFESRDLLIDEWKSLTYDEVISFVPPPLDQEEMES
T1 sequence (P47811 whole entry): as above

Turning to `COc1ccc(C(=O)N2CCC(Cc3cccc(NC(=O)Nc4cc(C(C)(C)C)nn4-c4ccc(C)cc4)c3)CC2)c(OC)c1` [Compound A27, 1-(5-tert-butyl-2-p-tolyl-2H-pyrazol-3-yl)-3-{3-[1-(2,4-dimethoxy-benzoyl)-piperidin-4-ylmethyl]-phenyl}-urea], the pIC50 is 7.00 to 8.00 in experiment [1]; 6.67 on Murine p38; 7.97 in experiment [2] (setting [4]); 6.30 to 8.00 in experiment [2] (setting [5]); 7.57 in experiment [3].
On to `COc1ccc(C(=O)N2CCC(Cc3ccc(NC(=O)Nc4cc(C(C)(C)C)nn4-c4ccc(C)cc4)cc3)CC2)c(OC)c1` [Compound A218, 1-(5-tert-Butyl-2-p-tolyl-2H-pyrazol-3-yl)-3-{4-[1-(2,4-dimethoxy-benzoyl)-piperidin-4-ylmethyl]-phenyl}-urea], for which the pIC50 in experiment [1] was 7.00 to 8.00; on Murine p38, 6.64; in experiment [2] (setting [4]) it was 7.81; in experiment [2] (setting [5]), 6.30 to 8.00.
`Cc1ccc(-n2nc(C(C)(C)C)cc2NC(=O)Nc2ccc(CC3CCN(C(=O)CNC(=O)c4ccccc4)CC3)cc2)cc1` [Compound A352, N-[2-(4-{4-[3-(5-tert-Butyl-2-p-tolyl-2H-pyrazol-3-yl)-ureido]-benzyl}-piperidin-1-yl)-2-oxo-ethyl]-benzamide]: the pIC50 was 7.00 to 8.00 in experiment [1] and 6.30 to 8.00 in experiment [2] (setting [5]).
For `Cc1ccc(-n2nc(C(C)(C)C)cc2NC(=O)Nc2ccc(CC3CCN(C(=O)c4ccc5[nH]ccc5c4)CC3)cc2)cc1` [Compound A361, 1-(5-tert-Butyl-2-p-tolyl-2H-pyrazol-3-yl)-3-{4-[1-(1H-indole-5-carbonyl)-piperidin-4-ylmethyl]-phenyl}-urea] the same measures were 7.00 to 8.00 and 6.30 to 8.00.
Taken in the same sequence, the figures for `Cc1ccc(-n2nc(C(C)(C)C)cc2NC(=O)Nc2ccc(CC3CCN(C(=O)c4ccncc4)CC3)cc2)cc1` [Compound A364, 1-(5-tert-Butyl-2-p-tolyl-2H-pyrazol-3-yl)-3-{4-[1-(pyridine-4-carbonyl)-piperidin-4-ylmethyl]-phenyl}-urea] were 7.00 to 8.00 and 6.30 to 8.00.
As for `COCC(=O)N1CCC(Cc2ccc(NC(=O)Nc3cc(C(C)(C)C)nn3-c3ccc(C)cc3)cc2)CC1` [Compound A367, 1-(5-tert-Butyl-2-p-tolyl-2H-pyrazol-3-yl)-3-{4-[1-(2-methoxy-acetyl)-piperidin-4-ylmethyl]-phenyl}-urea], the pIC50 in experiment [1] was 7.00 to 8.00; in experiment [2] (setting [5]), 6.30 to 8.00.
Take `CC(=O)NCC(=O)N1CCC(Cc2ccc(NC(=O)Nc3cc(C(C)(C)C)nn3-c3ccc(C)cc3)cc2)CC1` [Compound A375, N-[2-(4-{4-[3-(5-tert-Butyl-2-p-tolyl-2H-pyrazol-3-yl)-ureido]-benzyl}-piperidin-1-yl)-2-oxo-ethyl]-acetamide]: the pIC50 was 7.00 to 8.00 in experiment [1] and 6.30 to 8.00 in experiment [2] (setting [5]).
`Cc1ccc(-n2nc(C(C)(C)C)cc2NC(=O)Nc2ccc(CC3CCN(C(=O)c4cccnc4)CC3)cc2)cc1` [Compound A377, 1-(5-tert-Butyl-2-p-tolyl-2H-pyrazol-3-yl)-3-{4-[1-(pyridine-3-carbonyl)-piperidin-4-ylmethyl]-phenyl}-urea]: the pIC50 was 7.00 to 8.00 in experiment [1] and 6.30 to 8.00 in experiment [2] (setting [5]).
With `Cc1ccc(-n2nc(C(C)(C)C)cc2NC(=O)Nc2ccc(CC3CCN(C(=O)c4ccc5ncccc5c4)CC3)cc2)cc1` [Compound A386, 1-(5-tert-Butyl-2-p-tolyl-2H-pyrazol-3-yl)-3-{4-[1-(quinoline-6-carbonyl)-piperidin-4-ylmethyl]-phenyl}-urea], the figures for the pIC50 in experiment [1] and in experiment [2] (setting [5]) were 7.00 to 8.00 and 6.30 to 8.00, respectively.
For `Cc1ccc(-n2nc(C(C)(C)C)cc2NC(=O)Nc2ccc(CC3CCN(S(C)(=O)=O)CC3)cc2)cc1` [Compound A608, 1-(5-tert-Butyl-2-p-tolyl-2H-pyrazol-3-yl)-3-[4-(1-methanesulfonyl-piperidin-4-ylmethyl)-phenyl]-urea] the same measures were 7.00 to 8.00 and 6.30 to 8.00.
As to `COc1ccc(C(=O)N2CCC(Cc3ccccc3NC(=O)Nc3cc(C(C)(C)C)nn3-c3ccc(C)cc3)CC2)c(OC)c1` [Compound A1113, 1-(5-tert-butyl-2-p-tolyl-2H-pyrazol-3-yl)-3-{2-[1-(2,4-dimethoxy-benzoyl)-piperidin-4-ylmethyl]-phenyl}-urea], the pIC50 on Murine p38 is 6.30; in experiment [2] (setting [4]), 7.08; in experiment [2] (setting [5]), 6.30 to 8.00.
Take `Cc1ccc(-n2nc(C(C)(C)C)cc2NC(=O)Nc2ccc(CC3CCN(C(=O)OCc4ccccc4)CC3)cc2)cc1` [Compound A1610, 4-{4-[3-(5-tert-Butyl-2-p-tolyl-2H-pyrazol-3-yl)-ureido]-benzyl}-piperidine-1-carboxylic acid benzyl ester]: the values for the pIC50 in experiment [1] and in experiment [2] (setting [5]) were 7.00 to 8.00 and 6.30 to 8.00, respectively.
Taken in the same sequence, the figures for `Cc1ccc(-n2nc(C(C)(C)C)cc2NC(=O)Nc2ccc(CC3CCN(C(=O)OCC(C)C)CC3)cc2)cc1` [Compound A1625, 4-{4-[3-(5-tert-Butyl-2-p-tolyl-2H-pyrazol-3-yl)-ureido]-benzyl}-piperidine-1-carboxylic acid isobutyl ester] were 7.00 to 8.00 and 6.30 to 8.00.
For `COc1ccc(OC)c(C(=O)N2CCC(Cc3cccc(NC(=O)Nc4cc(C(C)(C)C)nn4-c4ccc(C)cc4)c3)CC2)c1` [Compound A1636, 1-(5-tert-Butyl-2-p-tolyl-2H-pyrazol-3-yl)-3-{3-[1-(2,5-dimethoxy-benzoyl)-piperidin-4-ylmethyl]-phenyl}-urea] the same measures were 7.00 to 8.00 and 6.30 to 8.00.
For `COc1ccc(C(=O)N2C3CCC2CC(Cc2ccc(NC(=O)Nc4cc(C(C)(C)C)nn4-c4ccc(C)cc4)cc2)C3)c(OC)c1` (centres unmarked) [Example 4, 1-(5-tert-Butyl-2-p-tolyl-2H-pyrazol-3-yl)-3-{4-[8-(2,4-dimethoxy-benzoyl)-8-aza-bicyclo[3.2.1]oct-3-ylmethyl]-phenyl}-urea], the pIC50 was 5.93 against Murine p38 and 7.10 in experiment [2] (setting [4]).
With `COc1ccc(C(=O)N2C3CCC2CC(Cc2ccccc2NC(=O)Nc2cc(C(C)(C)C)nn2-c2ccc(C)cc2)C3)c(OC)c1` (centres unmarked) [Example 5, 1-(5-tert-butyl-2-p-tolyl-2H-pyrazol-3-yl)-3-{2-[8-(2,4-dimethoxy-benzoyl)-8-aza-bicyclo[3.2.1]oct-3-ylmethyl]-phenyl}-urea], the pIC50 against Murine p38 is 5.17; in experiment [2] (setting [4]), 5.29.
